Legend:
Staphylococcus aureus [1] = test: Antimicrobial activity against Staphylococcus aureus ATCC 6538P after 18 hrs by twofold agar dilution method; assay type: functional
Staphylococcus aureus [2] = test: Antimicrobial activity against Staphylococcus aureus ATCC 25923 after 18 hrs by twofold agar dilution method; assay type: functional; conditions: ATCC 25923, 18 h, read-out: MIC
Staphylococcus aureus [3] = test: Antimicrobial activity against Staphylococcus aureus giorgio after 18 hrs by twofold agar dilution method; assay type: functional
Staphylococcus aureus [4] = test: Antimicrobial activity against Staphylococcus aureus 77 after 18 hrs by twofold agar dilution method; assay type: functional; conditions: Staphylococcus aureus, 77, 18 h
Staphylococcus aureus [5] = test: Antimicrobial activity against Staphylococcus aureus 241 after 18 hrs by twofold agar dilution method; assay type: functional; conditions: Staphylococcus aureus, 241, 18 h
[6] = tested on: Staphylococcus epidermidis; test: Antimicrobial activity against Staphylococcus epidermidis 887E after 18 hrs by twofold agar dilution method; assay type: functional
Enterococcus faecalis = test: Antimicrobial activity against Enterococcus faecalis ATCC 29212 after 18 hrs by twofold agar dilution method; assay type: functional; conditions: ATCC 29212, 18 h
Escherichia coli [7] = test: Antimicrobial activity against Escherichia coli ATCC 25922 after 18 hrs by twofold agar dilution method; assay type: functional; conditions: ATCC 25922, 18 h
Escherichia coli [8] = test: Antimicrobial activity against Escherichia coli ATCC 10536 after 18 hrs by twofold agar dilution method; assay type: functional; conditions: ATCC 10536, 18 h, read-out: MIC
Escherichia coli [9] = test: Antimicrobial activity against Escherichia coli 3190Y after 18 hrs by twofold agar dilution method; assay type: functional
Escherichia coli [10] = test: Antimicrobial activity against Escherichia coli 851E after 18 hrs by twofold agar dilution method; assay type: functional
Salmonella typhimurium [11] = test: Antimicrobial activity against Salmonella Typhimurium ATCC 14028 after 18 hrs by two-fold agar dilution method; assay type: functional, Salmonella enterica subsp. enterica serovar Typhimurium; conditions: Salmonella enterica, ATCC 14028, 18 h
Salmonella typhimurium [12] = test: Antimicrobial activity against Salmonella typhimurium ATCC 13311 after 18 hrs by twofold agar dilution method; assay type: functional, Salmonella enterica subsp. enterica serovar Typhimurium; conditions: Salmonella enterica, ATCC 13311, 18 h
Klebsiella pneumoniae = test: Antimicrobial activity against Klebsiella pneumoniae 2011E after 18 hrs by twofold agar dilution method; assay type: functional
Moraxella catarrhalis [13] = test: Antimicrobial activity against Moraxella catarrhalis 25240 after 18 hrs by twofold agar dilution method; assay type: functional; conditions: Moraxella catarrhalis, 25240, 18 h
Moraxella catarrhalis [14] = test: Antimicrobial activity against Moraxella catarrhalis C2431 after 18 hrs by twofold agar dilution method; assay type: functional; conditions: C2431, 18 h
Proteus vulgaris = test: Antimicrobial activity against Proteus vulgaris 6059 after 18 hrs by twofold agar dilution method; assay type: functional; conditions: Proteus vulgaris, 6059, 18 h
Morganella morganii = test: Antimicrobial activity against Morganella morganii 1375E after 18 hrs by twofold agar dilution method; assay type: functional
Citrobacter freundii = test: Antimicrobial activity against Citrobacter freundii 8090 after 18 hrs by twofold agar dilution method; assay type: functional; conditions: Citrobacter freundii, 8090, 18 h
Citrobacter koseri = test: Antimicrobial activity against Citrobacter diversus 2046 after 18 hrs by twofold agar dilution method; assay type: functional; conditions: Citrobacter koseri, 2046, 18 h
Enterobacter cloacae [15] = test: Antimicrobial activity against Enterobacter cloacae ATCC 27508 after 18 hrs by twofold agar dilution method; assay type: functional; conditions: ATCC 27508, 18 h
Enterobacter cloacae [16] = test: Antimicrobial activity against Enterobacter cloacae P99 after 18 hrs by twofold agar dilution method; assay type: functional; conditions: P99, 18 h
Serratia marcescens [17] = test: Antimicrobial activity against Serratia marcescens ATCC 27117 after 18 hrs by twofold agar dilution method; assay type: functional; conditions: ATCC 27117, 18 h
Serratia marcescens [18] = test: Antimicrobial activity against Serratia marcescens 1826E after 18 hrs by twofold agar dilution method; assay type: functional
[19] = tested on: Acinetobacter calcoaceticus; test: Antimicrobial activity against Acinetobacter calcoaceticus ATCC 15473 after 18 hrs by twofold agar dilution method; assay type: functional; conditions: ATCC 15473, 18 h
Micrococcus luteus = test: Antimicrobial activity against Micrococcus luteus ATCC 9341 after 18 hrs by twofold agar dilution method; assay type: functional; conditions: ATCC 9341, 18 h
Bacillus cereus = test: Antimicrobial activity against Bacillus cereus ATCC 27348 after 18 hrs by twofold agar dilution method; assay type: functional; conditions: ATCC 27348, 18 h
Bacillus subtilis = test: Antimicrobial activity against Bacillus subtilis ATCC 6633 after 18 hrs by twofold agar dilution method; assay type: functional; conditions: ATCC 6633, 18 h
Bacillus licheniformis = test: Antimicrobial activity against Bacillus licheniformis EMR after 18 hrs by twofold agar dilution method; assay type: functional
Pseudomonas aeruginosa = test: Antimicrobial activity against Pseudomonas aeruginosa 6065Y after 18 hrs by twofold agar dilution method; assay type: functional
Klebsiella aerogenes = test: Antimicrobial activity against Klebsiella aerogenes harboring beta-lactamase SHV-1 1976E mutant after 18 hrs by twofold agar dilution method; assay type: functional

Row | Compound | MIC (Staphylococcus aureus [1]) | MIC (Staphylococcus aureus [2]) | MIC (Staphylococcus aureus [3]) | MIC (Escherichia coli [8]) | MIC (Escherichia coli [10]) | MIC (Salmonella typhimurium [11]) | MIC (Salmonella typhimurium [12]) | MIC (Klebsiella pneumoniae) | MIC (Proteus vulgaris) | MIC (Morganella morganii) | MIC (Citrobacter freundii) | MIC (Citrobacter koseri) | MIC (Enterobacter cloacae [15]) | MIC (Enterobacter cloacae [16]) | MIC (Serratia marcescens [17]) | MIC (Serratia marcescens [18]) | MIC [19] | MIC (Bacillus subtilis) | MIC (Pseudomonas aeruginosa) | MIC (Klebsiella aerogenes) | further results
1 | C[C@H](CO)[C@H]1CC[C@H]2[C@@H]3CC[C@H]4C[C@@H](NCCCNCCCCNCCCN)CC[C@]4(C)[C@H]3CC[C@]12C.Cl.Cl.Cl.Cl | 8 µg/mL | 32 µg/mL | 32 µg/mL | < 32 µg/mL | > 32 µg/mL | > 32 µg/mL | > 32 µg/mL | > 32 µg/mL | > 32 µg/mL | > 32 µg/mL | > 32 µg/mL | > 32 µg/mL | > 32 µg/mL | > 32 µg/mL | > 32 µg/mL | > 32 µg/mL | > 32 µg/mL | 8 µg/mL | > 32 µg/mL | > 32 µg/mL | MIC (Staphylococcus aureus [4]): > 32 µg/mL; MIC (Staphylococcus aureus [5]; read-out: MIC): 8 µg/mL; MIC ([6]; read-out: MIC): 32 µg/mL; MIC (Enterococcus faecalis; read-out: MIC): < 32 µg/mL; MIC (Escherichia coli [7]): > 32 µg/mL; MIC (Escherichia coli [9]): > 32 µg/mL; MIC (Moraxella catarrhalis [13]; read-out: MIC): < 32 µg/mL; MIC (Moraxella catarrhalis [14]; read-out: MIC): < 32 µg/mL; MIC (Micrococcus luteus; read-out: MIC): 32 µg/mL; MIC (Bacillus cereus; read-out: MIC): < 32 µg/mL; MIC (Bacillus licheniformis; read-out: MIC): 32 µg/mL
2 | C[C@H](CO)[C@H]1CC[C@H]2[C@@H]3CC[C@@H]4C[C@H](NCCCNCCCCN)CC[C@]4(C)[C@H]3CC[C@]12C.Cl.Cl.Cl | 32 µg/mL | 32 µg/mL | 32 µg/mL | < 32 µg/mL | > 32 µg/mL | > 32 µg/mL | > 32 µg/mL | > 32 µg/mL | > 32 µg/mL | > 32 µg/mL | > 32 µg/mL | > 32 µg/mL | > 32 µg/mL | > 32 µg/mL | > 32 µg/mL | > 32 µg/mL | > 32 µg/mL | 32 µg/mL | > 32 µg/mL | > 32 µg/mL | MIC (Staphylococcus aureus [4]; read-out: MIC): 32 µg/mL; MIC (Staphylococcus aureus [5]): > 32 µg/mL; MIC [6]: > 32 µg/mL; MIC (Enterococcus faecalis): > 32 µg/mL; MIC (Escherichia coli [7]): > 32 µg/mL; MIC (Escherichia coli [9]; read-out: MIC): < 32 µg/mL; MIC (Moraxella catarrhalis [13]): > 32 µg/mL; MIC (Moraxella catarrhalis [14]): > 32 µg/mL; MIC (Micrococcus luteus): > 32 µg/mL; MIC (Bacillus cereus): > 32 µg/mL; MIC (Bacillus licheniformis; read-out: MIC): < 32 µg/mL
3 | C[C@H](CO)[C@H]1CC[C@H]2[C@@H]3CC[C@H]4C[C@@H](NCCCNCCCCN)CC[C@]4(C)[C@H]3CC[C@]12C.Cl.Cl.Cl | 8 µg/mL | 16 µg/mL | 16 µg/mL | < 32 µg/mL | > 32 µg/mL | > 32 µg/mL | > 32 µg/mL | > 32 µg/mL | > 32 µg/mL | > 32 µg/mL | > 32 µg/mL | > 32 µg/mL | > 32 µg/mL | > 32 µg/mL | > 32 µg/mL | > 32 µg/mL | > 32 µg/mL | 8 µg/mL | > 32 µg/mL | > 32 µg/mL | MIC (Staphylococcus aureus [4]; read-out: MIC): 32 µg/mL; MIC (Staphylococcus aureus [5]; read-out: MIC): 8 µg/mL; MIC ([6]; read-out: MIC): 16 µg/mL; MIC (Enterococcus faecalis): > 32 µg/mL; MIC (Escherichia coli [7]; read-out: MIC): < 32 µg/mL; MIC (Escherichia coli [9]): > 32 µg/mL; MIC (Moraxella catarrhalis [13]; read-out: MIC): 32 µg/mL; MIC (Moraxella catarrhalis [14]; read-out: MIC): 32 µg/mL; MIC (Micrococcus luteus; read-out: MIC): 16 µg/mL; MIC (Bacillus cereus): > 32 µg/mL; MIC (Bacillus licheniformis): > 32 µg/mL

Reference: ChEMBL document CHEMBL1795286, “A concise synthesis and antimicrobial activities of 3-polyamino-23,24-bisnorcholanes as steroid-polyamine conjugates” (2011)
